From US12594276B2, “Inhibitors of human immunodeficiency virus replication” (ViiV Healthcare UK (No.5) Limited, priority 2024, dated 2026)

Legend:
[1] = Compound cytotoxicity, XTT-based colorimetric assay; format: cell-based; settings: human; uninfected MT2 cells, day 4, XTT; read-out: CC50
Experimental: Compound cytotoxicity and the corresponding CC50 values were determined using the same protocol as described in the antiviral assay except that uninfected cells were used. Cytotoxicity was assessed on day 4 in uninfected MT2 cells by using an XTT (2,3-bis[2-Methoxy-4-nitro-5-sulfophenyl]-2H-tetrazolium-5-carboxyanilide inner salt)-based colorimetric assay (Sigma-Aldrich, St Louis, Mo).

[2] = test system: recombinant NL4-3 virus (nef section replaced with Renilla luciferase gene) in MT-2 cells; experiment: HIV cell culture assay (antiviral activity, luciferase readout); format: cell-based; settings: Renilla, NL43, MT-2 cells infected for 4-5 days with recombinant NL4-3 Renilla luciferase virus
Experimental: HIV cell culture assay—MT-2 cells, 293T cells and the proviral DNA clone of NL4-3 virus were obtained from the NIH AIDS Research and Reference Reagent Program. MT-2 cells were propagated in RPMI 1640 media supplemented with 10% heat inactivated fetal bovine serum (FBS), […]. The 293T cells were propagated in DMEM media supplemented with 10% heat inactivated FBS, […]. A recombinant NL4-3 proviral clone, in which a section of the nef gene was replaced with the Renilla luciferase gene, was used to make the reference virus used in these studies. The recombinant virus was prepared through transfection of the recombinant NL4-3 proviral clone into 293T cells using Transit-293 Transfection Reagent from Mirus Bio LLC (Madison, WI). Supernatant was harvested after 2-3 days and the amount of virus present was titered in MT-2 cells using luciferase enzyme activity as a marker by measuring luciferase enzyme activity. Luciferase was quantitated using the EnduRen Live Cell Substrate from Promega (Madison, WI). Antiviral activities of compounds toward the recombinant virus were quantified by measuring luciferase activity in MT-2 cells infected for 4-5 days with the recombinant virus in the presence of serial dilutions of the compound.
The 50% effective concentration (EC50) was calculated by using the exponential form of the median effect equation where (Fa)=1/[1+(ED50/drug conc.)m](Johnson V A, Byington R T. Infectivity Assay. In Techniques in HIV Research. ed. Aldovini A, Walker B D. 71-76. New York: Stockton Press. 1990). Curve fitting and analysis were performed with ActivityBase XE Runner software version 9.1.0.4 using model 203 (ID Business Solutions, LTD, Guildford, UK).

Cc1cc(C2(F)CCC(F)(F)CC2)nc2nc([C@H](Cc3cc(F)cc(F)c3)NC(=O)Cn3nc(C(F)F)c4c3C(F)(F)[C@@H]3C[C@H]43)n(-c3ccc(Cl)c4c(NS(C)(=O)=O)nn([C@H](C)C(=O)N5C[C@@H](C)O[C@@H](C)C5)c34)c(=O)c12 (atropisomer, axis not shown; (P)) [Example 743, N-[(1S)-1-[(3P)-3-{4-chloro-1-[(2R)-1-[(2R,6S)-2,6-dimethylmorpholin-4-yl]-1-oxopropan-2-yl]-3-methanesulfonamido-1H-indazol-7-yl}-5-methyl-4-oxo-7-(1,4,4-trifluorocyclohexyl)-3H,4H-pyrido[2,3-d]pyrimidin-2-yl]-2-(3,5-difluorophenyl)ethyl]-2-[(2S,4R)-9-(difluoromethyl)-5,5-difluoro-7,8-diazatricyclo[4.3.0.0^2,^4]nona-1(6),8-dien-7-yl]acetamide]
CC50 at 4 days [1]: > 20 nM
EC50 [2]: 0.016 nM

CS(=O)(=O)Nc1nn(CCN2C[C@H](F)C[C@H](F)C2)c2c(-n3c([C@H](Cc4cc(F)cc(F)c4)NC(=O)Cn4nc(C(F)F)c5c4C(F)(F)[C@@H]4C[C@H]54)nc4nc(C5CCC(F)(F)CC5)cc(CN5CC(F)(F)C5)c4c3=O)ccc(Cl)c12 (atropisomer, axis not shown; (P)) [Example 620, N-[(1S)-1-[(3P)-3-(4-chloro-1-{2-[(3R,5S)-3,5-difluoropiperidin-1-yl]ethyl}-3-methanesulfonamido-1H-indazol-7-yl)-5-[(3,3-difluoroazetidin-1-yl)methyl]-7-(4,4-difluorocyclohexyl)-4-oxo-3H,4H-pyrido[2,3-d]pyrimidin-2-yl]-2-(3,5-difluorophenyl)ethyl]-2-[(2S,4R)-9-(difluoromethyl)-5,5-difluoro-7,8-diazatricyclo[4.3.0.0^2,]nona-1(6),8-dien-7-yl]acetamide]
EC50 [2]: 0.007 nM

Cc1cc(C2CCC(F)(F)CC2)nc2nc([C@H](Cc3cc(F)cc(F)c3)NC(=O)Cn3nc(C4CC4)c4c3C[C@@H]3C[C@H]43)n(-c3ccc(Cl)c4c(NS(C)(=O)=O)nn(C[C@@H](C)N5CC(C)(C)OC(C)(C)C5)c34)c(=O)c12 (relative stereo) [Example 706, N-[(1S)-1-[(3P)-3-{4-chloro-3-methanesulfonamido-1-[(2R)-2-(2,2,6,6-tetramethylmorpholin-4-yl)propyl]-1H-indazol-7-yl}-7-(4,4-difluorocyclohexyl)-5-methyl-4-oxo-3H,4H-pyrido[2,3-d]pyrimidin-2-yl]-2-(3,5-difluorophenyl)ethyl]-2-[(2R*,4R*)-9-cyclopropyl-7,8-diazatricyclo[4.3.0.0^2,^4]nona-1(6),8-dien-7-yl]acetamide]
EC50 [2]: 0.015 nM

CC1(C)CN(CCn2nc(NS(C)(=O)=O)c3c(Cl)ccc(-n4c([C@H](Cc5cc(F)cc(F)c5)NC(=O)Cn5nc(C(F)F)c6c5C(F)(F)[C@@H]5C[C@H]65)nc5nc(C6CCC(F)(F)CC6)cc(CN6CC(F)(F)C6)c5c4=O)c32)CC(C)(C)O1 (atropisomer, axis not shown; (P)) [Example 621, N-[(1S)-1-[(3P)-3-{4-chloro-3-methanesulfonamido-1-[2-(2,2,6,6-tetramethylmorpholin-4-yl)ethyl]-1H-indazol-7-yl}-5-[(3,3-difluoroazetidin-1-yl)methyl]-7-(4,4-difluorocyclohexyl)-4-oxo-3H,4H-pyrido[2,3-d]pyrimidin-2-yl]-2-(3,5-difluorophenyl)ethyl]-2-[(2S,4R)-9-(difluoromethyl)-5,5-difluoro-7,8-diazatricyclo[4.3.0.0^2,4]nona-1(6),8-dien-7-yl]acetamide]
EC50 [2]: 0.005 nM
